System: T1, tetrodotoxin-sensitive voltage-gated Nav channels
T1 construct: gene Scn1a
Assay: whole-cell patch clamp, voltage ramp
Assay type: cell-based, Rattus norvegicus
Details: INa at maximal amplitude; veratridine 100 μM present, 2 mM NiCl2, 22–24 °C, pH 7.4; block voltage-dependent

SMILES: COc1ccccc1OCC(O)CN1CCN(CC(=O)Nc2c(C)cccc2C)CC1 (stereo not shown) [ranolazine]
- % inhibition at 20 μM: 40%

From paper PMC4674695, “Antagonism of Nav channels and α1-adrenergic receptors contributes to vascular smooth muscle effects of ranolazine” (Scientific Reports, 2015)
